From ChEMBL document CHEMBL3885861, “Open TG-GATES”

Species on record: Rattus norvegicus
Test: Open TG-GATES - Regimen: Single
Type: toxicity, organism-based, Sprague-Dawley
Design: regimen Single, gender Male, age 6 weeks
Conditions: in vivo, po, 0 mg/kg, route gavage, dose level Control; for APTT / Bas / Eos / Fbg / Hb / Ht / MCH / MCHC / MCV / Mono / PT / Plat / RBC / Ret / WBC: tissue Blood; for ALP / ALT / CRE / DBIL / GLC / IP / K / LDH / Na / PL / RALB / TBIL / TC / TG / TP / gamma-GTP: tissue Plasma

CCN(CC)C(=S)SSC(=S)N(CC)CC
TERMINAL_BW (3 h): 212.4 g | APTT (3 h): 21.9 s | Bas (3 h): 0% | Eos (3 h): 0.6% | Fbg (3 h): 285.8 mg/dL | Hb (3 h): 13.2 g/dL | Ht (3 h): 40.8% | MCH (3 h): 20.6 pg | MCHC (3 h): 32.3% | MCV (3 h): 63.8 fL | Mono (3 h): 2.6% | PT (3 h): 16.5 s | Plat (3 h): 98.3 x10_4/uL | RBC (3 h): 639.2 x10_4/ul | Ret (3 h): 7.6% | WBC (3 h): 97.5 x10_2/uL | ALP (3 h): 1602.8 IU/L | ALT (3 h): 48 IU/L | CRE (3 h): 0.2 mg/dL | DBIL (3 h): 0 mg/dL | GLC (3 h): 188.6 mg/dL | IP (3 h): 7.8 mg/dL | K (3 h): 4.2 meq/L | LDH (3 h): 236.6 IU/L | Na (3 h): 141.4 meq/L | PL (3 h): 138 mg/dL | RALB (3 h): 3 g/dL | TBIL (3 h): 0.006 mg/dL | TC (3 h): 73.6 mg/dL | TG (3 h): 72.4 mg/dL | TP (3 h): 5.5 g/dL | gamma-GTP (3 h): 1 IU/L | TERMINAL_BW (6 h): 208.9 g | APTT (6 h): 21.8 s | Bas (6 h): 0% | Eos (6 h): 0.8% | Fbg (6 h): 286.4 mg/dL | Hb (6 h): 12.8 g/dL | Ht (6 h): 39.4% | MCH (6 h): 20.1 pg | MCHC (6 h): 32.4% | MCV (6 h): 62 fL | Mono (6 h): 2% | PT (6 h): 16.6 s | Plat (6 h): 119.2 x10_4/uL | RBC (6 h): 635.6 x10_4/ul | Ret (6 h): 7.1% | WBC (6 h): 102.5 x10_2/uL | ALP (6 h): 1209.4 IU/L | ALT (6 h): 38.8 IU/L | CRE (6 h): 0.1 mg/dL | DBIL (6 h): 0 mg/dL | GLC (6 h): 184 mg/dL | IP (6 h): 9.5 mg/dL | K (6 h): 4.4 meq/L | LDH (6 h): 188 IU/L | Na (6 h): 141 meq/L | PL (6 h): 124.6 mg/dL | RALB (6 h): 3 g/dL | TBIL (6 h): 0.004 mg/dL | TC (6 h): 71.8 mg/dL | TG (6 h): 56.8 mg/dL | TP (6 h): 5.3 g/dL | gamma-GTP (6 h): 1 IU/L | TERMINAL_BW (9 h): 212.5 g | APTT (9 h): 23.3 s | Bas (9 h): 0% | Eos (9 h): 0.8% | Fbg (9 h): 297.2 mg/dL | Hb (9 h): 12.9 g/dL | Ht (9 h): 39.9% | MCH (9 h): 20.2 pg | MCHC (9 h): 32.3% | MCV (9 h): 62.6 fL | Mono (9 h): 2.6% | PT (9 h): 16.4 s | Plat (9 h): 107.7 x10_4/uL | RBC (9 h): 638.6 x10_4/ul | Ret (9 h): 7.1% | WBC (9 h): 111.4 x10_2/uL | ALP (9 h): 1326.8 IU/L | ALT (9 h): 33.6 IU/L | CRE (9 h): 0.2 mg/dL | DBIL (9 h): 0.002 mg/dL | GLC (9 h): 198.8 mg/dL | IP (9 h): 10 mg/dL | K (9 h): 4.1 meq/L | LDH (9 h): 130 IU/L | Na (9 h): 140.8 meq/L | PL (9 h): 132.4 mg/dL | RALB (9 h): 3.1 g/dL | TBIL (9 h): 0.008 mg/dL | TC (9 h): 72.6 mg/dL | TG (9 h): 82.4 mg/dL | TP (9 h): 5.4 g/dL | gamma-GTP (9 h): 1 IU/L | TERMINAL_BW (24 h): 229.8 g | APTT (24 h): 20.8 s | Bas (24 h): 0% | Eos (24 h): 1% | Fbg (24 h): 278.6 mg/dL | Hb (24 h): 12.5 g/dL | Ht (24 h): 38.4% | MCH (24 h): 20.4 pg | MCHC (24 h): 32.6% | MCV (24 h): 62.5 fL | Mono (24 h): 2.6% | PT (24 h): 16.4 s | Plat (24 h): 106.2 x10_4/uL | RBC (24 h): 613.8 x10_4/ul | Ret (24 h): 7.5% | WBC (24 h): 83.8 x10_2/uL | ALP (24 h): 1487.8 IU/L | ALT (24 h): 40.4 IU/L | CRE (24 h): 0.1 mg/dL | DBIL (24 h): 0 mg/dL | GLC (24 h): 193.4 mg/dL | IP (24 h): 7.8 mg/dL | K (24 h): 4.2 meq/L | LDH (24 h): 167.6 IU/L | Na (24 h): 141.2 meq/L | RALB (24 h): 3 g/dL | TBIL (24 h): 0.01 mg/dL | TC (24 h): 78.4 mg/dL | TG (24 h): 81.6 mg/dL | TP (24 h): 5.5 g/dL | gamma-GTP (24 h): 1.8 IU/L
